US8796339B2, “Compositions comprising benzyl alcohol derivatives and further antimicrobial active compounds” (Symrise AG, priority 2008, dated 2014)

System: Aspergillus niger ATCC 16404
Assay: Testing for adequate preservation (European Pharmacopoeia 5.1.3 preservative stress test) of inoculated cosmetic emulsions
Format: cell-based
Settings: for cfu/ml at 0 days / cfu/ml at 2 days / cfu/ml at 7 days / cfu/ml at 14 days: 4-methylbenzyl alcohol 0.4%; for cfu/ml at 0 days / Aspergillus niger germ count at 0 days (initial, "0 value"): day 0; for cfu/ml at 2 days / Aspergillus niger germ count at 2 days: day 2; for cfu/ml at 7 days / Aspergillus niger germ count at 7 days: day 7; for Aspergillus niger germ count at 0 days (initial, "0 value") / Aspergillus niger germ count at 2 days / Aspergillus niger germ count at 7 days: 1.0% product in O/W emulsion pH 5.5, B=1.0% 4-methylbenzyl alcohol; for cfu/ml at 14 days: day 14
Protocol: Testing for adequate preservation was carried out in accordance with the European Pharmacopoeia. Testing thus comprises contamination of the formulation, if possible in its final condition, with a prescribed inoculum of suitable microorganisms, storage of the inoculated formulation at a certain temperature, removal of samples from the container at certain intervals of time and determination of the number of microorganisms in the samples removed in this way. The preserving properties are adequate if, under the conditions of the test, a clear reduction or, where appropriate, no increase in the germ count results in the inoculated formulations after the prescribed times at the prescribed temperatures. Experimental details of the test procedure are described in the European Pharmacopoeia (ISBN 3-7692-2768-9; Supplement 2001 to the 3rd Edition, page 421-422, chapter 5.1.3). E: Aspergillus niger ATCC 16404 The initial germ count (cfu/ml; “0 value”) was in the range of from 230000 to 400000 in the various test series. For the tests for adequate preservation, a defined amount of the active compound combination according to the invention (product C) was incorporated into an O/W emulsion. For comparison purposes, the comparison products (product A and B) were incorporated into separate O/W emulsions. […] Phenonip® is a commercially available (Clariant, Nipa preservatives) and in cosmetic formulations widely used antimicrobial active mixture consisting of phenoxyethanol, methylparaben, ethylparaben, butylparaben, propylparaben and isobutylparaben. Testing for adequate preservation was carried out in accordance with the European Pharmacopoeia, as explained in Example 1a. The initial germ count (cfu/ml; “0 value”) was in the range of from 200,000 to 400,000 in the various test series.

[1] = Example 3, Table 8, dosage: 1,2-hexanediol 3.0%, mixture 1.5%+0.2%
[2] = Example 1a, A=0.5% 1,2-hexanediol+0.5% 1,2-octanediol, C=0.4%+0.4%+0.2%
[3] = Example 1b, A=0.25% 1,2-hexanediol+0.75% 1,2-octanediol, C=0.2%+0.6%+0.2%
[4] = Example 2, A=1.0% 1,2-octanediol, C=0.8% 1,2-octanediol+0.2% 4-methylbenzyl alcohol
[5] = Example 3, Table 7, dosage: 1,2-pentanediol 4.0%, mixture 2.0%+0.2%
[6] = Example 3, Table 9, dosage: 1,2-decanediol 1.0%, mixture 0.5% (title; listed as prints 1.5%)+0.2%

Row | SMILES | cfu/ml at 0 days [1] [cfu/ml] | cfu/ml at 2 days [1] [cfu/ml] | cfu/ml at 7 days [1] [cfu/ml] | Aspergillus niger germ count at 0 days (initial, "0 value") [2] [cfu/ml] | Aspergillus niger germ count at 2 days [2] [cfu/ml] | Aspergillus niger germ count at 7 days [2] [cfu/ml] | Aspergillus niger germ count at 0 days (initial, "0 value") [3] [cfu/ml] | Aspergillus niger germ count at 2 days [3] [cfu/ml] | Aspergillus niger germ count at 7 days [3] [cfu/ml] | Aspergillus niger germ count at 0 days (initial, "0 value") [4] [cfu/ml] | Aspergillus niger germ count at 2 days [4] [cfu/ml] | Aspergillus niger germ count at 7 days [4] [cfu/ml] | cfu/ml at 0 days [5] [cfu/ml] | cfu/ml at 2 days [5] [cfu/ml] | cfu/ml at 7 days [5] [cfu/ml] | cfu/ml at 14 days [5] [cfu/ml] | cfu/ml at 0 days [6] [cfu/ml] | cfu/ml at 2 days [6] [cfu/ml] | cfu/ml at 7 days [6] [cfu/ml]
1 | CCCCC(O)CO (centres unmarked) [1,2-Hexanediol, reference compound] | 250000 | 212000 | 132000 |  |  |  |  |  |  |  |  |  |  |  |  |  |  |  | 
2 | Cc1ccc(CO)cc1 [4-Methylbenzyl alcohol, 4-methylbenzyl alcohol] | 250000 | 208000 | 302000 | 320000 | 302000 | 167000 | 320000 | 302000 | 167000 | 320000 | 302000 | 167000 | 250000 | 208000 | 302000 | 132000 | 250000 | 208000 | 302000
3 | CCCCCCCCC(O)CO (centres unmarked) [1,2-Decanediol, reference compound] |  |  |  |  |  |  |  |  |  |  |  |  |  |  |  |  | 250000 | 208000 | 302000
4 | CCCC(O)CO (centres unmarked) [1,2-Pentanediol, reference compound] |  |  |  |  |  |  |  |  |  |  |  |  | 250000 | 246000 | 265000 | 246000 |  |  | 
